Holding throughout (format): functional, cell-based
The test system of test [1] is KB. Briefly: Inhibition of KB cell growth was assessed. The conditions noted are these: Homo sapiens.
For test [2], the system named is L1210. Briefly: Tested in vitro for cytotoxicity against murine L1210 leukemic cells. The settings on record: Mus musculus.
The subject of test [3] is HFF. Briefly: Tested for visual cytotoxicity on uninfected HFF cells. The settings on record: Homo sapiens.
Test [4] deals with HFF. Briefly: HCMV plaque assay was performed using HFF cells and effect was calculated as a percentage of reduction in number of plaques. The conditions noted are these: Homo sapiens.
Test [5] in a line: Antiviral activity was tested using an enzyme-linked immunosorbent assay (ELISA) to detect HSV-1 (herpes simplex virus type 1) using BSC-1 cells. The settings on record: Cercopithecidae.
The subject of test [6] is CEM-SS. Briefly: Intracellular phosphorylation (100 uM) in uninfected CEM-SS cells was studied after 24 hrs of Incubation time. The settings on record: Homo sapiens.
In test [7] the test system is CEM-SS. Briefly: Tested for visual cytotoxicity on uninfected CEM-SS cells. The settings on record: Homo sapiens.
The test system of test [8] is CEM-SS. Briefly: Intracellular phosphorylation (100 uM) in uninfected CEM-SS cells was studied after 24 hrs of Incubation time; Value ranges from 3-5. The conditions noted are these: Homo sapiens.

Consider `CN1N=C(N)c2cn([C@@H]3O[C@H](CO)C[C@H]3O)c3ncnc1c23`, for which the IC50 is 16 µM in test [1]; 2.2 µM in test [2]; greater than 100 µM in test [3]; greater than 100 µM in test [4]; 6 µM in test [5]; 100 µM in test [7]. The compound further displayed a Concentration in test [6] of 276 µM.

Consider `CN1N=C(N)c2cn([C@@H]3O[C@H](COP(=O)(O)O)[C@@H](O)[C@H]3O)c3ncnc1c23` [TRICIRIBINE PHOSPHATE], for which the IC50 in test [1] is 10 µM; in test [2] it was 0.025 µM; in test [3] it was 19 µM; in test [4] it was 0.8 µM; in test [5] it was 20 µM; in test [7], greater than 1 µM.

Regarding `CN1N=C(N)c2cn(C3C[C@@H](O)[C@@H](CO)O3)c3ncnc1c23` (some centres not stated), the IC50 in test [1], in test [2], in test [3], in test [4], in test [5] and in test [7] was greater than 100 µM each time. The Concentration in test [8] is less than 5 µM.

Take `C[C@H]1OC(n2cc3c4c(ncnc42)N(C)N=C3N)[C@H](O)[C@@H]1O` (some centres not stated): the IC50 in test [1], in test [2], in test [3], in test [4], in test [5] and in test [7] was greater than 100 µM throughout. Also, in test [8], the Concentration was less than 5 µM.

In the case of `CN1N=C(N)c2cn(C3O[C@H](CO)[C@H]4O[C@H]34)c3ncnc1c23` (some centres not stated), the IC50 in test [1] was greater than 100 µM; in test [3] it was greater than 100 µM; in test [4] it was greater than 100 µM; in test [5], 65 µM; in test [7], greater than 100 µM. In test [6], this compound showed a Concentration of less than 5 µM.

With `CN1N=C(N)c2cn([C@H]3C=C[C@@H](CO)O3)c3ncnc1c23`, the IC50 in test [1], in test [2], in test [3], in test [4], in test [5] and in test [7] was greater than 100 µM each time. This compound came in with a Concentration in test [8] of less than 5 µM.

`CN1N=C(N)c2cn([C@H]3CC[C@@H](CO)O3)c3ncnc1c23`: the IC50 was greater than 100 µM in test [1]; 25 µM in test [2]; greater than 100 µM in test [3]; greater than 100 µM in test [4]; greater than 100 µM in test [5]; greater than 100 µM in test [7]. This compound also displayed a Concentration in test [6] of 45 µM.

Source of the values: ChEMBL document CHEMBL1133023, “Deoxy sugar analogues of triciribine: correlation of antiviral and antiproliferative activity with intracellular phosphorylation” (J Med Chem, 2000).
